Assay results from US11186606B2, “Compositions and methods of modulating the immune response by activating alpha protein kinase 1” (Shanghai Yao Yuan Biotechnology Co., Ltd., priority 2017, dated 2021).

What was measured:
ALPK1 = ALPK1 (Homo sapiens, UniProt Q96QP1); test: Thermal shift assay (SYPRO Orange) for binding to ALPK1; settings: ALPK1 7 uM
Excerpt: The thermal shift assay is widely used to determine the binding of a molecule to a protein of interest. The assay is based on the increase in thermal energy required for denaturation of a protein where another molecule is bound to the protein. SYPRO Orange is a fluorescent compound used in the detection of thermal shift. SYPRO Orange binds to hydrophobic surfaces of the protein, and water strongly quenches its fluorescence. When the protein unfolds, the exposed hydrophobic surfaces bind the dye, resulting in an increase in fluorescence. When another molecule is bound to the protein, an increase in the temperature required for unfolding of the protein is observed.
This assay system was used to determine whether or not chemically synthesized HBP, HMP-1bP, and H1b-ADP directly bind to ALPK1. […] Only H1b-ADP induced a shift of more than 1 degree, at each of the three highest concentrations tested, 5 uM, 25 uM, and 125 uM.

CT26 cells = test: mRNA expression in CT26 tumor tissue after intratumoral injection (qPCR); assay type: in vivo, BALB/c mice; settings: 4 hours post intratumoral injection, 2.5 μg, 250 ng, 50 ng
Method: We next asked whether H1b-ADP caused an increase in pro-inflammatory cytokines within the tumor. Tumor cells (2×10^5 per 100 μL CT26 cells) were inoculated subcutaneously into the right flank of BALB/c mice. 2.5 μg (n=2), 250 ng (n=2), 50 ng (n=2) of H1b-ADP or control (n=2) was intratumorally injected (20 uL) at day 7 post inoculation. 4 hours post-injection, tumor issues were dissected and harvested. Total RNA was isolated (TRIzol™, ThermoFisher) and cDNA was synthesized (PrimeScript™ RT reagent Kit, Takara) and amplified (AceQ™ qPCR SYBR™ Green Master Mix, Vazyme Biotech using a QuantStudio™ 7 Flex Real-Time PCR Systems (ThermoFisher) according to manufacturers' protocols.

Chain of ALPK1 (Q96QP1 whole entry): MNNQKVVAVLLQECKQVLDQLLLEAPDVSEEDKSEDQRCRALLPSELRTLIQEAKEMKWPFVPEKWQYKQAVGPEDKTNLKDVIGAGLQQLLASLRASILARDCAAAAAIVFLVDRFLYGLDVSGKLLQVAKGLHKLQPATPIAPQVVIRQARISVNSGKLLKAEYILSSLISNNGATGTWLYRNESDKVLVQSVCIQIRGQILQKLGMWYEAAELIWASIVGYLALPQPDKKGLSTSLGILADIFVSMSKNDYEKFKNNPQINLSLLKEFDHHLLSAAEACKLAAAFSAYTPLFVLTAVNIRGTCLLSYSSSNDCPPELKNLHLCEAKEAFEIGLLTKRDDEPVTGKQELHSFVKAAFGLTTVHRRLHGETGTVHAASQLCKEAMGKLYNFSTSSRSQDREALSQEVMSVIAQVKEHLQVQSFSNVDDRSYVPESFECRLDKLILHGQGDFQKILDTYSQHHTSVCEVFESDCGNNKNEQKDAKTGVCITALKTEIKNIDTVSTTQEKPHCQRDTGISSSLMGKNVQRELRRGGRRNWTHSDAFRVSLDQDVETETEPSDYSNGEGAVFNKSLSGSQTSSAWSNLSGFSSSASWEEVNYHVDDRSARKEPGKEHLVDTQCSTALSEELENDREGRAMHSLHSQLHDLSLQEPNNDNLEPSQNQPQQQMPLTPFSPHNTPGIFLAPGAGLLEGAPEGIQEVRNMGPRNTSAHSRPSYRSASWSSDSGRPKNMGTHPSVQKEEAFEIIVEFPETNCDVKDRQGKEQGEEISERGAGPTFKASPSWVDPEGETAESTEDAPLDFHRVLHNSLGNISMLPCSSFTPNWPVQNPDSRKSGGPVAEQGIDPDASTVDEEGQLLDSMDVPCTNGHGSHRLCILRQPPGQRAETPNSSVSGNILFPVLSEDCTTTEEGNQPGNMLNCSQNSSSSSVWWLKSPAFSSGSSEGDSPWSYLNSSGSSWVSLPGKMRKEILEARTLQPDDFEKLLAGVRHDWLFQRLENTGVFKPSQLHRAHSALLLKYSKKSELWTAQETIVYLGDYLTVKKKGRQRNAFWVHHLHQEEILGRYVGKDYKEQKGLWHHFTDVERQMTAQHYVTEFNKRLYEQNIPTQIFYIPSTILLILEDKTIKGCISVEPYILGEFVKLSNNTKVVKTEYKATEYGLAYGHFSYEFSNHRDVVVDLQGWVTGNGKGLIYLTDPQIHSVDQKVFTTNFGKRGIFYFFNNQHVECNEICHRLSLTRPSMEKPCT

## Nc1ncnc2c1ncn2[C@@H]1O[C@H](COP(=O)(O)OP(=O)(O)O[C@@H]2O[C@H]([C@H](O)CO)[C@@H](O)[C@H](O)[C@@H]2O)[C@@H](O)[C@H]1O [Compound H1b-ADP, D-glycero-D-manno-heptose-1β-ADP]
ALPK1; 1 uM, 5 uM, 25 uM, or 125 uM
  thermal shift / direct binding to ALPK1: able to directly bind to ALPK1
ALPK1; at 5 uM, 25 uM, and 125 uM
  thermal shift of ALPK1: more than 1 degree
CT26 cells
  PD-1 and PD-L1 expression: increased
  mRNA expression of cytotoxic T cell marker CD8, T-helper cell marker CD4, regulatory T cell marker Foxp3 and Th1 cell marker T-bet: increased
  mRNA expression of inflammatory cytokine IL-1b, Tnfa, Ifn gamma, and IL-6, and chemokine Cxcl1: increased
